This is an account of results in US20140005163A1 (NOVARTIS AG, priority 2010, published 2014).

One experiment concerns the target T1, PI3K beta (Homo sapiens, UniProt P42338).
T1 construct: for the full-length p110-b subunit are generated and fused by overlapping PCR; p85(iSH2) fusion partner (see partner chain) (N); His tag (C); made in house; host or cells: baculovirus; Tn5 (Trichoplusia ni) or TiniPro insect cells
Briefly: PI3K beta kinase assay (Kinase-Glo luminescence). It is filed as biochemical. In outline:
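Enzyme: BV949 p85(iSH2)-Gly linker-p110β FL-His, 25 nM. Substrate: PI 10 μg/mL. ATP: 1 μM, added to start. Buffer: Tris pH 7.5 10 mM, MgCl2 3 mM, NaCl 50 mM, CHAPS 0.05%, DTT 1 mM. RT, 60 min. Readout: Kinase-Glo. IC50 by 4-parameter fit.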
For orientation: Kinase-Glo measures the ATP left after a reaction by luminescence.

The target in the next experiment is T2, mTOR (Homo sapiens, UniProt P42345).
T2 construct: purchased Invitrogen Corporation (Carlsbad/CA, USA) PV4753
T2 sequence (P42345 1360-2549 limits assumed): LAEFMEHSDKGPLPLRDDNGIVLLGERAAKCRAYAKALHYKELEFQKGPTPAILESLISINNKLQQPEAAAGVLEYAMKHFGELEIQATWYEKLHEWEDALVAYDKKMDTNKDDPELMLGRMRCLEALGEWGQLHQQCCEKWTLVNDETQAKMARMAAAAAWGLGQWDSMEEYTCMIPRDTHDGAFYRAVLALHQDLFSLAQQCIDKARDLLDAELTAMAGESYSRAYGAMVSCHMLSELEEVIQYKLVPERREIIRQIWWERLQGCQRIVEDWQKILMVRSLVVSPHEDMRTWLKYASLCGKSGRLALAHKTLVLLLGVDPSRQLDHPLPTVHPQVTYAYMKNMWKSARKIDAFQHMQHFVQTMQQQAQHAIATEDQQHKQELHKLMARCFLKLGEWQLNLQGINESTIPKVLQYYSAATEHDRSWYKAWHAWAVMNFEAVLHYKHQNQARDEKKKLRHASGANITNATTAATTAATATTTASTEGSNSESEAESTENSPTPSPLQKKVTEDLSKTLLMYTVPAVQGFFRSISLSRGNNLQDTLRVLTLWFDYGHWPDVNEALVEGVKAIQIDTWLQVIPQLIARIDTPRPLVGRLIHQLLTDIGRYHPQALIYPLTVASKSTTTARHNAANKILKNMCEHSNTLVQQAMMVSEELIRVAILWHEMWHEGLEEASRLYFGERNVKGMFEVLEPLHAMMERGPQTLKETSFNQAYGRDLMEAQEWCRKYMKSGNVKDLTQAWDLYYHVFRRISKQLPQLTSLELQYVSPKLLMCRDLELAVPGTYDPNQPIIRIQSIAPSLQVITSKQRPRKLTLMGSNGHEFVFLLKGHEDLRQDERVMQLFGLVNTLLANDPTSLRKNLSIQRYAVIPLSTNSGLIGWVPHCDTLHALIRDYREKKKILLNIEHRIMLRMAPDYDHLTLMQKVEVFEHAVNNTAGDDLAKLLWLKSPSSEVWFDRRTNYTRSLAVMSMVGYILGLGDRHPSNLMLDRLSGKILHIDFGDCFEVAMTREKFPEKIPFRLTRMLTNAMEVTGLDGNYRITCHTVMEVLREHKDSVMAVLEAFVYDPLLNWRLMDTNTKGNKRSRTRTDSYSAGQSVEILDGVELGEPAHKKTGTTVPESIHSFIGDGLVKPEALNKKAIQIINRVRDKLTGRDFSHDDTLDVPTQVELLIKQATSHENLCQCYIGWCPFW
The experiment is described as follows: Biochemical assay for m-TOR by TR-FRET. To be noted: 8 μM ATP, 400 nM GFP-4EBP1, 0.5 nM mTOR. In outline: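 Steps: ATP (8 μM final) plus GFP-4EBP1 (400 nM final) combined with mTOR (0.5 nM final), incubated at rt; buffer HEPES pH 7.5 with 10 mM MnCl2, NaCl, EGTA, DTT. Then stopped with EDTA/Tb3+-anti-p4EBP1 pT46 Ab (0.5 nM). Plates read after 15 min.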
On the technique in general: TR-FRET usually uses a lanthanide donor and a delayed reading to cut background.

Experiment [1] deals with PKB Ser473 phosphorylation in Rat1-myr-HA-p110 alpha cells. The experiment is described as follows: Reverse protein array assay, PKB Ser473 phosphorylation in Rat1-myr-p110 alpha cells. The note with it: 0.5 h, pAkt Ser473, 30 minutes compound incubation, read-out: p-PKB IC50. Format: cell-based. In outline: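 Measured: PKB Ser473 phosphorylation by reverse protein array in Rat1 cells expressing myr-HA-p110 alpha, beta or delta, after 30 min compound treatment at 37 °C with 0.2% DMSO vehicle.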

For orientation: IC50 means the concentration that inhibits the measured activity by half.

T1 sequence (P42338 with tags, fused parts or gaps limits assumed): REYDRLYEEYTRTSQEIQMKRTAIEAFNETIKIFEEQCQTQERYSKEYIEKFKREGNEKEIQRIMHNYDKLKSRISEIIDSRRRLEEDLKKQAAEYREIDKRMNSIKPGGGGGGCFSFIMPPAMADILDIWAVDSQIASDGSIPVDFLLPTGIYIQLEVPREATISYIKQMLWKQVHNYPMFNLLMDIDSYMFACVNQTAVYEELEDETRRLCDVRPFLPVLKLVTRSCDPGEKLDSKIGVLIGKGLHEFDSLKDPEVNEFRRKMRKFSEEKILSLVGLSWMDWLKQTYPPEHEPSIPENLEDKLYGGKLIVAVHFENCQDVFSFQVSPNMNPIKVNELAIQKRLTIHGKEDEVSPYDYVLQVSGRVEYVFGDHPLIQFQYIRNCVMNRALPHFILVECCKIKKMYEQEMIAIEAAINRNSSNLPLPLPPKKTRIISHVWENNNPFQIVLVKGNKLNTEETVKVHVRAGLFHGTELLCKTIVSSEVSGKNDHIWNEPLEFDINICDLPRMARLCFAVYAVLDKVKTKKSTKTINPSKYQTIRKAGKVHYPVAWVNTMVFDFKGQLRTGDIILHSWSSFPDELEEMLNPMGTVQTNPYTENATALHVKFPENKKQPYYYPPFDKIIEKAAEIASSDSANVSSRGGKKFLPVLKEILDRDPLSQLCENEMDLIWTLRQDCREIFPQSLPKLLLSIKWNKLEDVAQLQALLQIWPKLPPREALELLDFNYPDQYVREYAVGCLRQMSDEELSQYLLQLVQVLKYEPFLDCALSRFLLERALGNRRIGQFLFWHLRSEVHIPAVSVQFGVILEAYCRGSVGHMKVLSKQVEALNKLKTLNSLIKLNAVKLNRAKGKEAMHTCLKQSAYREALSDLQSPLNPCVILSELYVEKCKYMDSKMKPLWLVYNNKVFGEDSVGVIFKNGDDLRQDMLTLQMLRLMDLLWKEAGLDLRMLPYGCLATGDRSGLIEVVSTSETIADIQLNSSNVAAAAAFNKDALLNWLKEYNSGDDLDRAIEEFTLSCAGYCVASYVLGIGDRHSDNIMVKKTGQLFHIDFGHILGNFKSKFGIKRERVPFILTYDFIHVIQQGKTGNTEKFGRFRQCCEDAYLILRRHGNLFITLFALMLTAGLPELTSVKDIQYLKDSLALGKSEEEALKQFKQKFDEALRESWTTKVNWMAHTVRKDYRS

As to `COc1ccc(-c2ccc3ncc4c(c3c2)n(-c2c(C)nn(C)c2C)c(=O)n4C)cn1` [Example 2.4, 8-(6-Methoxy-pyridin-3-yl)-3-methyl-1-(1,3,5-trimethyl-1H-pyrazol-4-yl)-1,3-dihydro-imidazo[4,5-c]quinolin-2-one], the 50% inhibitory concentration (IC50) was 120 nM at PI3K beta, 448 nM at mTOR and 65 nM in experiment [1].

On to `CCOc1ccc(-c2ccc3ncc4c(c3c2)n(-c2cn(C)nc2C)c(=O)n4C)cn1` [Example 3.1, 1-(1,3-Dimethyl-1H-pyrazol-4-yl)-8-(6-ethoxy-pyridin-3-yl)-3-methyl-1,3-dihydro-imidazo[4,5-c]quinolin-2-one], for which the results for the IC50 (at PI3K beta; at mTOR; in experiment [1]) were 192 nM, 11 nM and 24 nM, respectively.

As to `CCOc1ccc(-c2ccc3ncc4c(c3c2)n(-c2cn(CC(=O)N3CCOCC3)nc2C)c(=O)n4C)cn1` [Example 3.10, 8-(6-Ethoxy-pyridin-3-yl)-3-methyl-1-[3-methyl-1-(2-morpholin-4-yl-2-oxo-ethyl)-1H-pyrazol-4-yl]-1,3-dihydro-imidazo[4,5-c]quinolin-2-one], the IC50 was 18 nM on mTOR and 59 nM in experiment [1].

Consider `CCOc1ccc(-c2ccc3ncc4c(c3c2)n(-c2c(C)nn(CC(=O)N(C)C)c2C)c(=O)n4C)cn1` [Example 3.12, 2-{4-[8-(6-Ethoxy-pyridin-3-yl)-3-methyl-2-oxo-2,3-dihydro-imidazo[4,5-c]quinolin-1-yl]-3,5-dimethyl-pyrazol-1-yl}-N,N-dimethyl-acetamide], for which the IC50 came to 548 nM on mTOR and 128 nM in experiment [1].

For `CCn1cc(-n2c(=O)n(C)c3cnc4ccc(-c5ccc(N(C)C)nc5)cc4c32)c(C)n1` [Example 4.2, 8-(6-Dimethylamino-pyridin-3-yl)-1-(1-ethyl-3-methyl-1H-pyrazol-4-yl)-3-methyl-1,3-dihydro-imidazo[4,5-c]quinolin-2-one], the results for the IC50 (on PI3K beta; on mTOR; in experiment [1]) were 225 nM, 15 nM and 14 nM, respectively.

For the molecule `Cc1nn(C)c(C)c1-n1c(=O)n(C)c2cnc3ccc(-c4ccc(N(C)C)nc4)cc3c21` [Example 4.3, 8-(6-Dimethylamino-pyridin-3-yl)-3-methyl-1-(1,3,5-trimethyl-1H-pyrazol-4-yl)-1,3-dihydro-imidazo[4,5-c]quinolin-2-one], the IC50 on PI3K beta worked out at 382 nM; at mTOR, 543 nM; in experiment [1] it was 68 nM.

For the molecule `Cc1nn(C(C)C)cc1-n1c(=O)n(C)c2cnc3ccc(-c4ccc(N5CCC5)nc4)cc3c21` [Example 5.2, 8-(6-Azetidin-1-yl-pyridin-3-yl)-1-(1-isopropyl-3-methyl-1H-pyrazol-4-yl)-3-methyl-1,3-dihydro-imidazo[4,5-c]quinolin-2-one], the IC50 on mTOR amounted to 13 nM; in experiment [1], 14 nM.

Consider `Cc1nn(C)cc1-n1c(=O)n(C)c2cnc3ccc(-c4cnc(N(C)C)nc4)cc3c21` [Example 6.2, 8-(2-Dimethylamino-pyrimidin-5-yl)-1-(1,3-dimethyl-1H-pyrazol-4-yl)-3-methyl-1,3-dihydro-imidazo[4,5-c]quinolin-2-one], for which the results for the IC50 (at PI3K beta; on mTOR; in experiment [1]) were 185 nM, 43 nM and 32 nM, respectively.

For `Cc1ccc(-c2ccc3ncc4c(c3c2)n(-c2cn(C)nc2C)c(=O)n4C)cn1` [Example 7.2, 1-(1,3-Dimethyl-1H-pyrazol-4-yl)-3-methyl-8-(6-methyl-pyridin-3-yl)-1,3-dihydro-imidazo[4,5-c]quinolin-2-one], the IC50 at PI3K beta came out at 66 nM; on mTOR, 34 nM; in experiment [1], 14 nM.

Take `Cc1cc(-n2c(=O)n(C)c3cnc4ccc(-c5ccc(C(F)(F)F)nc5)cc4c32)n(C)n1` [Example 8.2, 1-(2,5-Dimethyl-2H-pyrazol-3-yl)-3-methyl-8-(6-trifluoromethyl-pyridin-3-yl)-1,3-dihydro-imidazo[4,5-c]quinolin-2-one]: the IC50 was found to be 387 nM on PI3K beta, 677 nM on mTOR and 192 nM in experiment [1].

Take `COc1cncc(-c2ccc3ncc4c(c3c2)n(-c2cn(C)nc2C)c(=O)n4C)c1` [Example 12, 1-(1,3-Dimethyl-1H-pyrazol-4-yl)-8-(5-methoxy-pyridin-3-yl)-3-methyl-1,3-dihydro-imidazo[4,5-c]quinolin-2-one]: the IC50 on PI3K beta came to 21 nM; on mTOR, 17 nM; in experiment [1], 37 nM.

Consider `CNC(=O)c1ccc(-c2ccc3ncc4c(c3c2)n(-c2cn(C)nc2C)c(=O)n4C)cn1` [Example 15.1, 5-[1-(1,3-Dimethyl-1H-pyrazol-4-yl)-3-methyl-2-oxo-2,3-dihydro-1H-imidazo[4,5-c]quinolin-8-yl]-pyridine-2-carboxylic acid methylamide], for which the IC50 on PI3K beta came to 255 nM; on mTOR, 13 nM; in experiment [1], 25 nM.

Regarding `Cc1nn(C(C)C)cc1-n1c(=O)n(C)c2cnc3ccc(-c4ccc(CO)nc4)cc3c21` [Example 16.3, 8-(6-hydroxymethyl-pyridin-3-yl)-1-(1-isopropyl-3-methyl-1H-pyrazol-4-yl)-3-methyl-1,3-dihydro-imidazo[4,5-c]quinolin-2-one], the half-inhibitory concentration (IC50) on PI3K beta worked out at 404 nM; at mTOR, 45 nM; in experiment [1] it was 67 nM.

`CCn1cc(-n2c(=O)n(C)c3cnc4ccc(-c5cnc(OC)nc5)cc4c32)c(C)n1` [Example 17.1, 1-(1-Ethyl-3-methyl-1H-pyrazol-4-yl)-8-(2-methoxy-pyrimidin-5-yl)-3-methyl-1,3-dihydro-imidazo[4,5-c]quinolin-2-one]: the results for the IC50 (at PI3K beta; on mTOR; in experiment [1]) were 120 nM, 59 nM and 73 nM, respectively.

For the molecule `COc1ncc(-c2ccc3ncc4c(c3c2)n(-c2cn(C)nc2C)c(=O)n4C)cn1` [Example 17.2, 1-(1,3-Dimethyl-1H-pyrazol-4-yl)-8-(2-methoxy-pyrimidin-5-yl)-3-methyl-1,3-dihydro-imidazo[4,5-c]quinolin-2-one], the figures for the IC50 (at PI3K beta; on mTOR; in experiment [1]) were 206 nM, 68 nM and 19 nM, respectively.

Regarding `Cc1nn(C)c(C)c1-n1c(=O)n(C)c2cnc3ccc(-c4cccc(O)c4)cc3c21` [Example 32.2, 8-(3-Hydroxy-phenyl)-3-methyl-1-(1,3,5-trimethyl-1H-pyrazol-4-yl)-1,3-dihydro-imidazo[4,5-c]quinolin-2-one], the values for the IC50 (at PI3K beta; in experiment [1]) were 165 nM and 221 nM, respectively.

For `Cc1nn(CC(=O)N(C)C)cc1-n1c(=O)n(C)c2cnc3ccc(-c4ccc(-n5cccn5)cc4)cc3c21` [Example 51.2, N,N-Dimethyl-2-{3-methyl-4-[3-methyl-2-oxo-8-(4-pyrazol-1-yl-phenyl)-2,3-dihydro-imidazo[4,5-c]quinolin-1-yl]-pyrazol-1-yl}-acetamide], the IC50 is < 3 nM on mTOR and 15 nM in experiment [1].

For the molecule `Cc1nn(C)cc1-n1c(=O)n(C)c2cnc3ccc(-c4cnc5c(c4)nc(N(C)C)n5C)cc3c21` [Example 70, 8-(2-Dimethylamino-3-methyl-3H-imidazo[4,5-b]pyridin-6-yl)-1-(1,3-dimethyl-1H-pyrazol-4-yl)-3-methyl-1,3-dihydro-imidazo[4,5-c]quinolin-2-one], the concentration for half-maximal inhibition (IC50) at mTOR turned out to be 81 nM.

Consider `CCOc1ccc(-c2ccc3ncc4c(c3c2)n(-c2cn(CC(=O)N(C)CC)nc2C)c(=O)n4C)cn1` [Example 136, 2-{4-[8-(6-Ethoxy-pyridin-3-yl)-3-methyl-2-oxo-2,3-dihydro-imidazo[4,5-c]quinolin-1-yl]-3-methyl-pyrazol-1-yl}-N-ethyl-N-methyl-acetamide], for which the IC50 worked out at 9 nM at mTOR and 11 nM in experiment [1].

As for `COCCN(C)C(=O)Cn1cc(-n2c(=O)n(C)c3cnc4ccc(-c5ccccc5)cc4c32)c(C)n1` [Example 137, N-(2-Methoxy-ethyl)-N-methyl-2-[3-methyl-4-(3-methyl-2-oxo-8-phenyl-2,3-dihydro-imidazo[4,5-c]quinolin-1-yl)-pyrazol-1-yl]-acetamide], the IC50 (at mTOR; in experiment [1]) was 324 nM in each case.

For the molecule `CCN(CC)C(=O)Cn1cc(-n2c(=O)n(C)c3cnc4ccc(-c5ccc(C)nc5)cc4c32)c(C)n1` [Example 139, N,N-Diethyl-2-{3-methyl-4-[3-methyl-8-(6-methyl-pyridin-3-yl)-2-oxo-2,3-dihydro-imidazo[4,5-c]quinolin-1-yl]-pyrazol-1-yl}-acetamide], the half-inhibitory concentration (IC50) at mTOR was 21 nM; in experiment [1], 52 nM.

With `Cc1nn(C)cc1-n1c(=O)n(C)c2cnc3ccc(-c4ccc(N5CC[C@@H](O)C5)nc4)cc3c21` [Example 212.1, 1-(1,3-Dimethyl-1H-pyrazol-4-yl)-8-[6-((R)-3-hydroxy-pyrrolidin-1-yl)-pyridin-3-yl]-3-methyl-1,3-dihydro-imidazo[4,5-c]quinolin-2-one], the concentration for half-maximal inhibition (IC50) at mTOR was 72 nM; in experiment [1], 135 nM.
